In patent publication US20250382556A1, “MODULATION OF THE BRANCHED-CHAIN METABOLITE CONTENT OF FRUITS AND VEGETABLES” (BOARD OF TRUSTEES OF MICHIGAN STATE UNIVERSITY, priority 2024, published 2025):

Test system: apple peel
Assay: Free amino acid content of apple peel via UPLC-MS/MS after AHAS inhibitor treatment
Type: in vivo, Malus x domestica Borkh.
Design: key to free asparagine content compared to control / free aspartate content compared to control / free cysteine content compared to control / free glutamate content compared to control / free glutamine content compared to control / free glycine content compared to control / free histidine content compared to control / free lysine content compared to control / free methionine content compared to control / free phenylalanine content compared to control / free serine content compared to control / free threonine content compared to control / free tryptophan content compared to control / free tyrosine content compared to control / free valine content compared to control / total free amino acid content compared to control / free alanine content compared to control / free arginine content compared to control: —: Dash indicates no significant difference between treatments
Settings: for free alanine content compared to control / free arginine content compared to control / free asparagine content compared to control / free aspartate content compared to control / free cysteine content compared to control / free glutamate content compared to control / free glutamine content compared to control / free glycine content compared to control / free histidine content compared to control / free isoleucine content compared to control / free leucine content compared to control / free lysine content compared to control / free methionine content compared to control / free phenylalanine content compared to control / free serine content compared to control / free threonine content compared to control / free tryptophan content compared to control / free tyrosine content compared to control / free valine content compared to control / total free amino acid content compared to control: 1 mM daily
Method: Whole apple fruit, freshly harvested and at an early stage of ripening (‘ripening’), were held at room temperature (22° C.) and rubbed daily with 3 mL of a freshly made 1mM solution of the inhibitor rimsulfuron (N-((4,6-dimethoxypyrimidin-2-yl)aminocarbonyl)-3-(ethylsulfonyl)-2-pyridinesulfonamide, made from DuPont MATRIX® SG, 25% w/w active ingredient; 0.1% Tween 20) or water solution containing 0.1% Tween 20 before preparation with further treatments. Flowering quince fruit were smaller than the apple fruit and had 2 mL of the control and treatment solutions applied daily at 22° C. ‘Gala’, ‘Empire’, and ‘Jonagold’ apple fruit were treated for four, nine, and seven days before further preparation, respectively. Flowering quince fruit were treated for six days before analysis. Headspace volatile emissions were monitored for three or four representative fruits during the incubation/treatment period to determine appropriate times for further treatments. During method testing, 1 mM solutions of the imidazolinone imazamox was also assessed with apple fruit (2-[4,5-dihydro-4-methyl-4-(1-methylethyl)-5-oxo-1H-imidazol-2-yl]-5-(methoxymethyl)-3-pyridinecarboxylic acid, made from RAPTOR®, 12.1% w/w active ingredient; 0.1% Tween 20).
After volatile analysis, apple peel disks, collected peel of flowering quince, and ‘Valery’ pulp section samples were held at −80° C. for further amino acid analysis.
Frozen samples were ground to a powder in liquid nitrogen-chilled mortar and pestles. About 500 mg of tissue was vortexed for 10 sec in 2 mL of room temperature (22° C.) extraction solution (1:1:1 water:acetonitrile:ethanol, v/v/v) spiked with 2 nmoles of U-^13C,^15N labeled amino acids (MilliporeSigma) as internal standards and heated for 15 min in a 65° C. water bath. Extracts were briefly chilled on ice before centrifugation at 4400×g for 15 min at 4° C. The supernatant was filtered by centrifugation (0.2 μm nylon centrifugal filter; Costar, Corning) at 21000×g for 5 min at room temperature. 10 μL of the filtrate was transferred to an autosampler vial and diluted 100-fold with 990 μL of 10.1 mM perfluorohexanoic acid (PFHA) spiked with […] of internal standard. Thus the final concentration of internal standard was ˜2 μM.
An amino acid standard series was prepared from a premade mixture (MilliporeSigma, AAS18) that contained equal molar amounts of cystine and all 20 proteinogenic amino acids save for tryptophan, asparagine, glutamine, and cysteine. An equal molar mixture of tryptophan, asparagine, glutamine, and cysteine was subsequently prepared. To avoid dilution errors or artefacts from differing buffers, these amino acid stocks were aliquoted and desiccated such that a five-part standard series ranging from 250 μM to 25 nM would be produced upon resuscitation with 10 μL of spiked extraction buffer and 990 μL spiked PFHA solution.
Samples and amino acids were held overnight at −20° C. before analysis. Amino acids were analyzed with a Xevo TQ-S Micro UPLC (H-Class)-MS/MS (Waters) at the Michigan State University Mass Spectrometry and Metabolomics Core. Conditions were as follows. HPLC column: Acquirt UPLC HSS T3, 2.1×100 mm, 1.7 μm particle size (Waters), with a 0.2 μm pre-column filter (Waters). Mobile phase: A) 10 mM PFHA in water, B) acetonitrile. LC gradient: linear gradient, slope setting=6, flow rate=0.3 mL·min^−1, step 1) 0 min, 100% A, 0% B, 2) 1 min, 100% A, 0% B, 3) 8 min, 35% A, 65% B, 4) 8.01 min, 10% A, 90% B, 5) 9 min, 10% A, 90% B, 6) 9.01 min, 100% A, 0% B, 7) 13 min, 100% A, 0% B. Column temp: 40° C. Autosampler temp: 10° C. Injection volume: 10 μL. Tune parameters: electrospray ionization, standard ESI probe, capillary voltage=+1.0 kV, source temp=120° C., desolvation temp=350° C., desolvation gas=800 L·hr^−1, cone gas=40 L·hr^−1. MS collection was split into three phases and were adjusted after checking the retention time of several samples; however proline was missed for apple and flowering quince samples. […]

[1] = ripening Empire apple peel, nine days
[2] = ripening Gala apple peel, four days
[3] = ripening Jonagold apple peel, seven days

CCS(=O)(=O)c1cccnc1S(=O)(=O)NC(=O)Nc1nc(OC)cc(OC)n1 [rimsulfuron, N-((4,6-dimethoxypyrimidin-2-yl)aminocarbonyl)-3-(ethylsulfonyl)-2-pyridinesulfonamide]
free alanine content compared to control [1]: — | free arginine content compared to control [1]: — | free asparagine content compared to control [1]: — | free aspartate content compared to control [1]: — | free cysteine content compared to control [1]: 261.5 ± 32.5% | free glutamate content compared to control [1]: — | free glutamine content compared to control [1]: — | free glycine content compared to control [1]: — | free histidine content compared to control [1]: — | free isoleucine content compared to control [1]: 3.3 ± 0.7% | free leucine content compared to control [1]: 422.8 ± 100.1% | free lysine content compared to control [1]: — | free methionine content compared to control [1]: 212.7 ± 26.8% | free phenylalanine content compared to control [1]: — | free serine content compared to control [1]: — | free threonine content compared to control [1]: — | free tryptophan content compared to control [1]: — | free tyrosine content compared to control [1]: — | free valine content compared to control [1]: — | total free amino acid content compared to control [1]: — | free alanine content compared to control [2]: 273.4 ± 27.4% | free arginine content compared to control [2]: — | free asparagine content compared to control [2]: — | free aspartate content compared to control [2]: 231.8 ± 18.0% | free cysteine content compared to control [2]: — | free glutamate content compared to control [2]: 146.3 ± 5.6% | free glutamine content compared to control [2]: 250.7 ± 33.5% | free glycine content compared to control [2]: — | free histidine content compared to control [2]: — | free isoleucine content compared to control [2]: 16.4 ± 6.3% | free leucine content compared to control [2]: 214.4 ± 42.2% | free lysine content compared to control [2]: — | free methionine content compared to control [2]: — | free phenylalanine content compared to control [2]: — | free serine content compared to control [2]: 300.1 ± 27.7% | free threonine content compared to control [2]: 182.3 ± 14.2% | free tryptophan content compared to control [2]: — | free tyrosine content compared to control [2]: — | free valine content compared to control [2]: — | total free amino acid content compared to control [2]: 191.5 ± 20.4% | valine following treatment (ripening Gala, Empire, Jonagold peels): unaffected | free alanine content compared to control [3]: — | free arginine content compared to control [3]: — | free asparagine content compared to control [3]: — | free aspartate content compared to control [3]: — | free cysteine content compared to control [3]: 410.6 ± 49.6% | free glutamate content compared to control [3]: — | free glutamine content compared to control [3]: — | free glycine content compared to control [3]: — | free histidine content compared to control [3]: — | free isoleucine content compared to control [3]: 4.1 ± 1.3% | free leucine content compared to control [3]: 393.2 ± 74.4% | free lysine content compared to control [3]: — | free methionine content compared to control [3]: 218.3 ± 31.0% | free phenylalanine content compared to control [3]: — | free serine content compared to control [3]: 191.9 ± 32.1% | free threonine content compared to control [3]: — | free tryptophan content compared to control [3]: — | free tyrosine content compared to control [3]: — | free valine content compared to control [3]: — | total free amino acid content compared to control [3]: — | reduction of isoleucine in the peels (ripening fruit of the three cultivars (Gala, Empire, Jonagold), on average): 92.1% | increase of leucine content (three ripening cultivars, on average): 3.4 fold
